Patent US20150175599A1, “FAAH Inhibitors” (Ironwood Pharmaceuticals, Inc., priority 2010, published 2015)

Key:
FAAH = target: T1, FAAH (Homo sapiens, UniProt O00519); assay: FAAH inhibition, human brain membrane homogenate assay; assay type: biochemical; conditions: human brain homogenate; average activity; read-out: Human brain Extract FAAH IC50
T1 construct: Reactions were initiated by adding 12.5 μg of brain microsome; tissue ABS, Inc; host or cells: human brain cerebral cortex, membrane/microsome fraction pooled from 3 donors
T1 sequence (O00519 1-579): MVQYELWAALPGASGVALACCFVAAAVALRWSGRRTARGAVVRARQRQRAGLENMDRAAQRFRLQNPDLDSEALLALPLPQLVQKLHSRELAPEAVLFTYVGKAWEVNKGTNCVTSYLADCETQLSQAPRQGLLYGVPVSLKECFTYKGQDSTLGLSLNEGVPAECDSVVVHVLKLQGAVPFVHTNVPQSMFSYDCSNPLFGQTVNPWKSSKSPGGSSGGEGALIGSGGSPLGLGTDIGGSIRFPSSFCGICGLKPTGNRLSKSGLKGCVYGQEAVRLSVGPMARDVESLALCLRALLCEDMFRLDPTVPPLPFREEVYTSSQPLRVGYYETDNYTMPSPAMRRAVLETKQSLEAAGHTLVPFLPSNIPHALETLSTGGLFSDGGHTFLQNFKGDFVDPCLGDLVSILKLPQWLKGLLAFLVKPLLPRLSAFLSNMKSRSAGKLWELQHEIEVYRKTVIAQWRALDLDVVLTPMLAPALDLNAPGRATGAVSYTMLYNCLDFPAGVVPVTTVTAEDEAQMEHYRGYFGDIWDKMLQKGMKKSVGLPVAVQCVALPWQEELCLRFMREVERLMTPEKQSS

hERG channel = target: T2, hERG channel (Homo sapiens, UniProt Q12809); assay: hERG channel inhibition, automated patch clamp (IonWorks HT, hERG-CHO); assay type: cell-based; conditions: CHO cells expressing hERG, 600 s incubation; for inhibition at 600 s, 1 µM: 1 μM compound, read-out: hERG Channel Inhibition % (at 1 μM), vehicle-subtracted values; for inhibition at 600 s, 10 µM: 10 μM compound, read-out: hERG Channel Inhibition % (at 10 μM), vehicle-subtracted values
T2 construct: expressed in transfected cells; host or cells: CHO (hERG-CHO), under Geneticin selection
Method in brief: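 hERG-CHO cells held at 30 °C for 48 h before IonWorks HT patch clamp: from −80 mV to +40 for 2 s, then −50 mV for 2 s tail, repeated three times, before and after 600 s compound exposure. Third-pulse post/pre tail amplitude ratio gave percent inhibition; cells with seal <50 MOhm or tail <250 pA excluded.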

T2 sequence (Q12809 whole entry): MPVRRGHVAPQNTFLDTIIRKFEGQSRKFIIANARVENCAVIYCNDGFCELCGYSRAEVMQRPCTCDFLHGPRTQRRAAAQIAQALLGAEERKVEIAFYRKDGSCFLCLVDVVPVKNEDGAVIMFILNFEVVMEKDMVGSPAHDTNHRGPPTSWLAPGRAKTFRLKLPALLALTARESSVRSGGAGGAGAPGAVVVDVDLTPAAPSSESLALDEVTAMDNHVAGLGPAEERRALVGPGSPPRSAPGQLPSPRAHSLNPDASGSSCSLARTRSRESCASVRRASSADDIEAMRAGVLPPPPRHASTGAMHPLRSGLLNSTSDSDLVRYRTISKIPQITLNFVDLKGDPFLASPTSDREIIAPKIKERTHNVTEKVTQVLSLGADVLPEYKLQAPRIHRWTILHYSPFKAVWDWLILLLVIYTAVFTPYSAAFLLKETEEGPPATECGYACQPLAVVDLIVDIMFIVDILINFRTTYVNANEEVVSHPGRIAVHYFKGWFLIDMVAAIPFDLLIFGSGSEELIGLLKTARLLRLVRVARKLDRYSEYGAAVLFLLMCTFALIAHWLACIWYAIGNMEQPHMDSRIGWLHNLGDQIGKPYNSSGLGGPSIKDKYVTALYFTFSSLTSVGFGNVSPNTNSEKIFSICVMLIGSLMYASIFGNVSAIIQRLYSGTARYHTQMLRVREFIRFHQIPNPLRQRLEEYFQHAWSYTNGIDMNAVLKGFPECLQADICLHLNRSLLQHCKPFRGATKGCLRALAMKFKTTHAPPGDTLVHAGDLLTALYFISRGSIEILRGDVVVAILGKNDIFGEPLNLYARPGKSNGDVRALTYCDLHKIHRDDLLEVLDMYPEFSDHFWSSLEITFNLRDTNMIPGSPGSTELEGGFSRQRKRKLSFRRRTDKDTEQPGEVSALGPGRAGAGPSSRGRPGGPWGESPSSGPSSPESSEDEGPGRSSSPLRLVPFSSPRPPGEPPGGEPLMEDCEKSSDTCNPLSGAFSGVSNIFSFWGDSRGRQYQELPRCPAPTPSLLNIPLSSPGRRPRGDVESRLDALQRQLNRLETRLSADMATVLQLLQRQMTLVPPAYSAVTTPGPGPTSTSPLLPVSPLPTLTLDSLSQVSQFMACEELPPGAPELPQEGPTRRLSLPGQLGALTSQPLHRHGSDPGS

Row | Compound | IC50 (FAAH) [nM] | inhibition at 600 s, 1 µM (hERG channel) [%] | inhibition at 600 s, 10 µM (hERG channel) [%]
1 | COc1cc(NC(=O)C(=O)c2c(C)n(Cc3ccc(Cl)cn3)c3ccc(C)cc23)ccn1 [Compound 61, 2-(1-((5-chloropyridin-2-yl)methyl)-2,5-dimethyl-1H-indol-3-yl)-N-(2-methoxypyridin-4-yl)-2-oxoacetamide] | < 100 | 25 to 50 | 50 to 75
2 | COc1ccc2c(c1)c(C(=O)C(=O)Nc1ccnc(OC)n1)c(C)n2Cc1ccc(Cl)cc1 [Compound 46, 2-(1-(4-chlorobenzyl)-5-methoxy-2-methyl-1H-indol-3-yl)-N-(2-methoxypyrimidin-4-yl)-2-oxoacetamide] | < 100 | < 25 | < 25
3 | COc1ccc2c(c1)c(C(=O)C(=O)Nc1ccnc(OC)c1F)c(C)n2Cc1ccc(Cl)cc1 [Compound 53, 2-(1-(4-chlorobenzyl)-5-methoxy-2-methyl-1H-indol-3-yl)-N-(3-fluoro-2-methoxypyridin-4-yl)-2-oxoacetamide] | 100 to 1000 | < 25 | < 25
4 | COc1cc(NC(=O)C(=O)c2c(C)n(Cc3ccc(Cl)cc3)c3ccc(N(C)C(=O)OC(C)(C)C)cc23)ccn1 [Compound 7, Tert-butyl(1-(4-chlorobenzyl)-3-(2-((2-methoxypyridin-4-yl)amino)-2-oxoacetyl)-2-methyl-1H-indol-5-yl)(methyl)carbamate] | 100 to 1000 | < 25 | < 25
